Test [1] has as its target T1, human muscarinic M4 receptor (Homo sapiens, UniProt P08173).
T1 construct: expressed in transfected cells
T1 sequence (P08173 1-479): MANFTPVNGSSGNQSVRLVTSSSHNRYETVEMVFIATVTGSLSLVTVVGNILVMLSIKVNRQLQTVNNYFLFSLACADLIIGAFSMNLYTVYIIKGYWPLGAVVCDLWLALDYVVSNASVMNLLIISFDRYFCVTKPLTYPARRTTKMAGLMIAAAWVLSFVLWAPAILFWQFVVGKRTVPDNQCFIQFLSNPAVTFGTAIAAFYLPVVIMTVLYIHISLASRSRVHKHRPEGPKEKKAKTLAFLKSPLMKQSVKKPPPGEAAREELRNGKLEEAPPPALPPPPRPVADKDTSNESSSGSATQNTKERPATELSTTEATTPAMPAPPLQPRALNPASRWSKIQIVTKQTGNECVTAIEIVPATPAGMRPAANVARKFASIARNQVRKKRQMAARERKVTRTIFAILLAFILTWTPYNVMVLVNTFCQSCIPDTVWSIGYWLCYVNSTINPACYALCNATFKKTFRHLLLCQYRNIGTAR
The test is described as follows: Alphascreen Surefire phospho-ERK1/2 functional assay, M4. In kind it is cell-based. The following applies: for EC50: CHO cells stably expressing human M4, phospho-ERK1/2, * = variable results, read-out: pEC50 M4 (converted); for Emax: CHO. (In general: Alpha assays give light when donor and acceptor beads are brought close together.)
Method: CHO cells stably expressing the human muscarinic M1, M2, M3 or M4 receptor were plated (25K/well) onto 96-well tissue culture plates in MEM-alpha+10% dialysed FBS. Once adhered, cells were serum-starved overnight. Agonist stimulation was performed by the addition of 5 μL agonist to the cells for 5 min (37° C.). Media was removed and 50 μL of lysis buffer added. After 15 min, a 4 μL sample was transferred to 384-well plate and 7 μL of detection mixture added. Plates were incubated for 2 h with gentle agitation in the dark and then read on a PHERAstar plate reader.
pEC50 and Emax figures were calculated from the resulting data for each receptor subtype.

Test [2] addresses T2, human muscarinic M1 receptor (Homo sapiens, UniProt P11229).
T2 sequence (P11229 1-460): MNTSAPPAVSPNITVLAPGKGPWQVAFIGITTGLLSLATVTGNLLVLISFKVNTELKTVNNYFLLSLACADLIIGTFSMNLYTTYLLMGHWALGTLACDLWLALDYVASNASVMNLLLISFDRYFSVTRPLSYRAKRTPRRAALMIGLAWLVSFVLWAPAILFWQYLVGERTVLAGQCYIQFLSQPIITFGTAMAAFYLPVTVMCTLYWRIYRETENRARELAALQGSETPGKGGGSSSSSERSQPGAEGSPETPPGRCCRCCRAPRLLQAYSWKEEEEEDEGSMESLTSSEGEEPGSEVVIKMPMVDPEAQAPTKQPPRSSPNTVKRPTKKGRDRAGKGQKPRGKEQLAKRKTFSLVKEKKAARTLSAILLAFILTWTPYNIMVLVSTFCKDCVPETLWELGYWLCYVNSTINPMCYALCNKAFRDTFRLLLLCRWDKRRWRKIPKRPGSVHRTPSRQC
The test can be described thus: Alphascreen Surefire phospho-ERK1/2 functional assay, M1. Format: cell-based. The following applies: for EC50: CHO cells stably expressing human M1, phospho-ERK1/2, * = variable results, read-out: pEC50 M1 (converted); for Emax: CHO.

Setting [3] is: read-out: % Emax cf. ACh, M4, CHO cells stably expressing human M4, relative to ACh.
The mark [4] stands for this setting: read-out: % Emax cf. ACh, M1, CHO cells stably expressing human M1, relative to ACh.

As usually defined, the Emax is the maximal effect, on the per cent scale that the assay sets.

Where two headings read alike, the source gives them in different places. A value given as a limit tells only on which side of the number the result lay.

With `CCOC(=O)N1CCC2(CC(N3CCC(n4cncn4)CC3)C2)C1` (single isomer, unassigned) [1-36 Isomer 2, ethyl 2-[4-(1H-1,2,4-triazol-1-yl)piperidin-1-yl]-6-azaspiro[3.4]octane-6-carboxylate], the EC50 in test [1] is 251 nM; in test [2], 5010 nM. Moreover, the Emax in test [1] (setting [3]) was found to be 47%; in test [2] (setting [4]), 73%.

As for `CCOC(=O)N1CCC2(CC(N3CCC(O)(c4ncc[nH]4)CC3)C2)C1` (single isomer, unassigned) [1-37 Isomer 2, ethyl 2-[4-hydroxy-4-(1 H-imidazol-2-yl)piperidin-1-yl]-6-azaspiro[3.4]octane-6-carboxylate], the EC50 in test [1] was 501 nM; in test [2], 2510 nM. In addition, the maximal effect (Emax) was 126% in test [1] (read-out: % Emax cf. ACh, M4) and 78% in test [2] (read-out: % Emax cf. ACh, M1).

Consider `CCOC(=O)N1CCC2(CC(N3CCC(O)(c4nccn4C)CC3)C2)C1` (single isomer, unassigned) [1-39 Isomer 2, ethyl 2-[4-hydroxy-4-(1-methyl-1H-imidazol-2-yl)piperidin-1-yl]-6-azaspiro[3.4]octane-6-carboxylate], for which the EC50 in test [1] was 398 nM; in test [2], 1000 nM. The Emax in test [1] (read-out: % Emax cf. ACh, M4) stood at 97%; in test [2] (read-out: % Emax cf. ACh, M1), 49%.

As to `CCOC(=O)N1CCC2(CC(N3CCC(OC)(c4nccn4C)CC3)C2)C1` (single isomer, unassigned) [1-40 Isomer 2, ethyl 2-[4-methoxy-4-(1-methyl-1H-imidazol-2-yl)piperidin-1-yl]-6-azaspiro[3.4]octane-6-carboxylate], the EC50 was 158 nM in test [1] and greater than 20000 nM in test [2]. Besides, the Emax in test [1] (read-out: % Emax cf. ACh, M4) came to 50%; in test [2] (read-out: % Emax cf. ACh, M1) it was 904%.

In the case of `CCOC(=O)N1CCC2(CC(N3CCC(C)(c4nc(C)no4)CC3)C2)C1` (single isomer, unassigned) [1-41 Isomer 2, ethyl 2-[4-methyl-4-(3-methyl-1,2,4-oxadiazol-5-yl)piperidin-1-yl]-6-azaspiro[3.4]octane-6-carboxylate], the EC50 in test [1] was 251 nM; in test [2], 1000 nM. Further, the Emax in test [1] (read-out: % Emax cf. ACh, M4) amounted to 35%; in test [2] (read-out: % Emax cf. ACh, M1) it was 52%.

As for `CCn1nccc1C1CCN(C2CC3(CCN(C(=O)OC)C3)C2)CC1` (single isomer, unassigned) [1-46 Isomer 2, methyl 2-[4-(1-ethyl-1H-pyrazol-5-yl)piperidin-1-yl]-6-azaspiro[3.4]octane-6-carboxylate], the EC50 in test [1] was 200 nM; in test [2] it was greater than 20000 nM. Besides, the results for the Emax in test [1] (setting [3]) and in test [2] (setting [4]) were 63% and 35%, respectively.

For `CCCn1nccc1C1CCN(C2CC3(CCN(C(=O)OC)C3)C2)CC1` (single isomer, unassigned) [1-48 Isomer 2, methyl 2-[4-(1-propyl-1H-pyrazol-5-yl)piperidin-1-yl]-6-azaspiro[3.4]octane-6-carboxylate], the EC50 in test [1] is 631 nM; in test [2], greater than 20000 nM. Besides, the Emax in test [1] (setting [3]) is 68%; in test [2] (setting [4]), 63%.

`CCOC(=O)N1CCC2(CC(N3CCC(c4nccn4CCOC)CC3)C2)C1` (single isomer, unassigned) [1-51 Isomer 2, ethyl 2-{4-[1-(2-methoxyethyl)-1H-imidazol-2-yl]piperidin-1-yl}-6-azaspiro[3.4]octane-6-carboxylate]: the EC50 is 158 nM in test [1] and 1260 nM in test [2]. The values for the Emax in test [1] (setting [3]) and in test [2] (setting [4]) were 106% and 74%, respectively.

Regarding `CCOC(=O)N1CCC2(CC(N3CCC(c4nccn4CC(=O)O)CC3)C2)C1` (single isomer, unassigned) [1-53 Isomer 2, (2-{1-[6-(ethoxycarbonyl)-6-azaspiro[3.4]oct-2-yl]piperidin-4-yl}-1H-imidazol-1-yl)acetic acid], the EC50 in test [1] is 1260 nM; in test [2], 5010 nM. For the same compound, the Emax in test [1] (setting [3]) came to 80%; in test [2] (setting [4]) it was 38%.

In the case of `CCOC(=O)N1CCC2(CC(N3CCC(c4nccn4CC(=O)NC)CC3)C2)C1` (single isomer, unassigned) [1-54 Isomer 2, ethyl 2-(4-{1-[2-(methylamino)-2-oxoethyl]-1H-imidazol-2-yl}piperidin-1-yl)-6-azaspiro[3.4]octane-6-carboxylate], the EC50 was 794 nM in test [1] and greater than 20000 nM in test [2]. The Emax was found to be 74% in test [1] (setting [3]) and 51% in test [2] (setting [4]).

In the case of `COC(=O)N1CCC2(CC(N3CCC(c4nn(C)cc4C)CC3)C2)C1` (single isomer, unassigned) [1-55 Isomer 2, methyl 2-[4-(1,4-dimethyl-1H-pyrazol-3-yl)piperidin-1-yl]-6-azaspiro[3.4]octane-6-carboxylate], the EC50 in test [1] was 501 nM; in test [2], 5010 nM. The Emax was found to be 64% in test [1] (setting [3]) and 40% in test [2] (setting [4]).

With `CCOC(=O)N1CCC2(CC(N3CCC(c4c(C)cnn4CC)CC3)C2)C1` (single isomer, unassigned) [1-59 Isomer 2, ethyl 2-[4-(1-ethyl-4-methyl-1H-pyrazol-5-yl)piperidin-1-yl]-6-azaspiro[3.4]octane-6-carboxylate], the EC50 in test [1] was 100 nM; in test [2], 398 nM. In addition, the Emax in test [1] (setting [3]) is 76%; in test [2] (setting [4]), 38%.

For the compound `CCOC(=O)N1CCC2(CC(N3CCC(c4c(CC)cnn4C)CC3)C2)C1` (single isomer, unassigned) [1-60 Isomer 2, ethyl 2-[4-(4-ethyl-1-methyl-1H-pyrazol-5-yl)piperidin-1-yl]-6-azaspiro[3.4]octane-6-carboxylate], the EC50 in test [1] is 39.8 nM; in test [2] it was 316 nM. In addition, the results for the Emax in test [1] (setting [3]) and in test [2] (setting [4]) were 88% and 82%, respectively.

For `CCOC(=O)N1CCC2(CC(N3CCC(n4cnnn4)CC3)C2)C1` (single isomer, unassigned) [1-62 Isomer 2, ethyl 2-[4-(1H-tetrazol-1-yl)piperidin-1-yl]-6-azaspiro[3.4]octane-6-carboxylate], the EC50 is greater than 20000 nM in test [1] and 1260 nM in test [2]. Moreover, the Emax in test [1] (setting [3]) is 10%; in test [2] (setting [4]) it was 73%.

On to `CCOC(=O)N1CCC2(CC(N3CCC(n4nnnc4C)CC3)C2)C1` (single isomer, unassigned) [1-63 Isomer 2, ethyl 2-[4-(5-methyl-1H-tetrazol-1-yl)piperidin-1-yl]-6-azaspiro[3.4]octane-6-carboxylate], for which the EC50 in test [1] was 1000 nM; in test [2], greater than 20000 nM. Also, the Emax was determined as 24% in test [1] (setting [3]) and 82% in test [2] (setting [4]).

Take `CCOC(=O)N1CCC2(CC(N3CCC(c4nnnn4C)CC3)C2)C1` (single isomer, unassigned) [1-64 Isomer 2, ethyl 2-[4-(1-methyl-1H-tetrazol-5-yl)piperidin-1-yl]-6-azaspiro[3.4]octane-6-carboxylate]: the results for the EC50 in test [1] and in test [2] were 316 nM and 5010 nM, respectively. Moreover, the Emax in test [1] (setting [3]) came to 78%; in test [2] (setting [4]), 40%.

For the compound `CCOC(=O)N1CCC2(CC(N3CCC(c4nnnn4CC)CC3)C2)C1` (single isomer, unassigned) [1-65 Isomer 2, ethyl 2-[4-(1-ethyl-1H-tetrazol-5-yl)piperidin-1-yl]-6-azaspiro[3.4]octane-6-carboxylate], the EC50 in test [1] was 251 nM; in test [2], greater than 20000 nM. The figures for the Emax in test [1] (setting [3]) and in test [2] (setting [4]) were 73% and 60%, respectively.

As to `CCOC(=O)N1CCC2(CC(N3CCC(c4nnn(CC)n4)CC3)C2)C1` (single isomer, unassigned) [1-66 Isomer 2, ethyl 2-[4-(2-ethyl-2H-tetrazol-5-yl)piperidin-1-yl]-6-azaspiro[3.4]octane-6-carboxylate], the EC50 in test [1] was 251 nM; in test [2] it was greater than 20000 nM. For the same compound, the Emax in test [1] (setting [3]) was determined as 32%; in test [2] (setting [4]), 14%.

For the compound `CCOC(=O)N1CCC2(CC(N3CCC(c4nnnn4C4CC4)CC3)C2)C1` (single isomer, unassigned) [1-67 Isomer 2, ethyl 2-[4-(1-cyclopropyl-1H-tetrazol-5-yl)piperidin-1-yl]-6-azaspiro[3.4]octane-6-carboxylate], the EC50 in test [1] was 316 nM; in test [2], 3160 nM. Further, the Emax in test [1] (setting [3]) came to 75%; in test [2] (setting [4]), 37%.

These data come from patent publication US9926297B2, “Bicyclic AZA compounds as muscarinic M1 receptor and/or M4 receptor agonists” (Heptares Therapeutics Limited, priority 2014, dated 2018).
